Source: US20230016182A1, “EO/PO-MODIFIED 9-PHENYLACRIDINE PHOTOSENSITIZERS AND APPLICATION THEREOF” (Changzhou Tronly New Electronic Materials Co., Ltd., priority 2019, published 2023)

Test: Photosensitizer solubility test in 2-butanone and PGMEA
Type: physicochemical
Details: Test temperature 25° C.; for Solubility in 2-butanone: solvent 2-butanone
From the text: Among them, 9-phenylacridine (denoted as C7, produced by CHANGZHOU TRONLY NEW ELECTRONIC MATERIALS CO., LTD.) was used for comparison.

Compound | Solubility in 2-butanone [g] | Solubility in PGMEA (solvent PGMEA) [g]
COCCOCCOCCOc1ccc(-c2c3ccccc3nc3ccccc23)cc1 [Product C1] | 21.10 | 
c1ccc(-c2c3ccccc3nc3ccccc23)cc1 [Product C7, 9-phenylacridine] | 0.74 | 0.51
